The values that follow come from patent US5434295A (priority 1994, dated 1995).

In one assay the test system is Rat brain NMDA receptors. In words: Blockade of NMDA response in Xenopus oocytes injected with rat brain RNA. Format: biochemical. An excerpt:
Blockade of NMDA-induced voltage changes in Xenopus oocytes: Frog oocytes can be injected with genetic material from various species and organs, resulting in the expression of the various molecules encoded by this material in the oocyte. Injection of rat brain RNA provides active NMDA receptors on the ooctye surface. Application of NMDA results in changes in the electrical activity recorded from the oocytes. Various NMDA antagonists block the NMDA-induced changes in electrical activity and their potency and dose dependence in this system indicate their potency and mode of action as NMDA antagonists.
The oocyte is the most widely used system for studying the molecular, biophysical and pharmacological properties of expressed voltage- or transmitter-operated ion channels. This giant cell offers several advantages for this type of studies. It can be readily used for two-electrode voltage clamp studies, translates injected mRNA from different sources and functionally expresses the translated proteins, and it is also readily amenable for intracellular micron injections. Importantly, the recordings of neurotransmitter- or voltage-induced currents in a single oocyte are extremely stable and can performed repeatedly for 2-3 hours; this allows the performance of a full dose-response relation in single oocytes.
Rat brain NMDA receptors were expressed in Xenopus oocytes injected with total rat brain RNA. Dascal and Lotan. The conditions for injection culture and electrical recording from oocytes were as described by Dascal and Lotan (in: Methods in Molecular Biology, Longstaff and Revest, eds. Vol. 13, Chapter 13, Humana Press, N.J., 1992).
Briefly, female Xenopus were anesthetized by immersion in water containing 0.15% tricaine methanesulfonate and a small incision was made in the lower abdomen. Ovary fragments were removed into ND-96.
The oocytes were defolliculated by the collagenase treatment in order to remove the follicle cell layer. Defolliculated oocytes were injected with total rat brain RNA and incubated for 2-4 days at 22° C. in sterile NDE-96 solution. ND-96 solution contains (in mM): NaCl - 96, KCl - 2, CaCl2 - 1.8, Hepes - 5 (pH=7.4-7.6). NDE-96 contains in addition, 2.5 mM sodium pyruvate, 100 unit/ml penicillin, 100 μg/ml streptomycin. A single oocyte was placed in a 1 ml bath constantly superfused with ND-96 solution at room temperature. The cell was impaled with two microelectrodes and held at membrane potential of -60 mV using voltage clamp circuit.
RNA was extracted from the brain of 14-day old rat brain. Each oocyte was injected with 50 nl total RNA (4-8 mg/ml in water, stored at -80° C. in […] aliquots).
NMDA receptors were activated by application of NMDA with glycine in Mg-free ND-96 solution. It was shown previously and also observed in this study that the entry of calcium ions through the NMDA receptor-channel evokes a Ca-dependent Cl^- current which appeared as an early inward current peak preceding and overlapping the actual NMDA response and hindering a quantitative pharmacological study of NMDA antagonists. Experimental conditions were therefore worked out aimed at eliminating the Cl^- current. The best protocol employed the use of Ca-free, Ba-containing solution, avoiding repetitive application of antagonists, as well as other conditions including optimal perfusion rate and optimal intervals between repetitive NMDA applications.
Several NMDA receptor blockers were tested. These compounds have […] and have to be dissolved in 100% dimethyl sulfoxide (DMSO) and diluted for use in ND-96 that contained 1% DMSO. Therefore, the effect of 1% DMSO on the response to 10^-4 M NMDA and 5×10^-6 M glycine was examined. DMSO had no effect on NMDA response in three different cells.
Eight putative NMDA antagonists of the HU group, including 270, 271 and 259 were tested for anti-NMDA activity at a glutamate receptor. […]

The subject of assay [1] is pyramidal cells in CA1 subfield of the hippocampus. In words: Histopathological evaluation of hippocampus in gerbils after bilateral common carotid artery occlusion. In kind it is in vivo, Mongolian gerbils. To be noted: drug 30 min after occlusion. An excerpt: Inhibition of ischemic neuronal damage in gerbils: Temporary blockage of the blood supply to the gerbil brain by surgical ligation of the two major arteries (common carotids) results in transient global forebrain ischemia. Temporary global ischemia produces a delayed, selective degeneration of neurons in the hippocampus, a brain structure essential for memory formation. The ability of various compounds to prevent hippocampal cell loss and the attendant memory deficits is considered a measure of their potency as neuroprotectants in ischemic conditions.
Mongolian gerbils (male), 65-70 gr (Tumblebrook Farm) underwent the ischemic procedure while anaesthetised with equithisine.
Common carotid arteries (CCA) were isolated and 3-0 silk suture material was positioned loosely round them. The tips of each loop were tied together, and the suture material was buried beside the trachea. The ventral neck incision was then sutured. In the following day, they were lightly anaesthetised with ether, the neck skin wounds were opened and both CCA were occluded for 10 minutes using small artery clips. During the ischemia and until the animals recovered (regaining righting reflexes), they were maintained in a warm state (36.5°-37.5° C. rectal temperature). […]
Histopathological evaluation. […] Then, 5 μm sections were cut from the area of the dorsal hippocampus, stained with H&E and cresyl violet, and evaluated according to the following system. The number of viable pyramidal cells in the medial, middle and lateral CA1 subfield of the hippocampus were counted under 400X magnification, along 0.4 mm in both sides. […]
Statistics. Neuroclinical appearance was analyzed using Wilcoxon Rank Sum Test. The histopathological evaluation was analyzed using One-Way ANOVA followed by Duncan's Test.
Gerbils were scored for their clinical symptoms following the ischemic insult according to the system described by Rudolphi et al. (Table 4). Each animal was evaluated daily over 4 consecutive days (Day 1 being the day of CCA occlusion). […]

As for `CCCCCCC(C)(C)c1cc(OC(C)=O)c([C@H]2C=C(C(=O)O)[C@H]3C[C@@H]2C3(C)C)c(OC(C)=O)c1` [(+)-4-[4-DMH-2,6 diacetoxyphenyl]-2-carboxy-6,6-dimethylbicyclo[3.1.1]hept-2-en], the “selectivity NMDA over AMPA/kainate receptors” value in the assay with Rat brain NMDA receptors is listed as “selective for the NMDA over AMPA/kainate receptors”. The figures for the “% inhibition of NMDA” value in the assay with Rat brain NMDA receptors (1 μM) and in the assay with Rat brain NMDA receptors (10 μM) were 35% and 41%, respectively. Further, the “mode of NMDA antagonism” value in the assay on Rat brain NMDA receptors (Lineweaver-Burke analysis) is “non-competitive NMDA antagonists”. Moreover, in the assay on Rat brain NMDA receptors (NMDA response), the “concentration at which inhibitory activity was first apparent” value was 10 nM. Also, the “histopathological damage / survival of hippocampal cells” value (from here on “histopathological damage / survival”) in assay [1] is listed as “significantly decreased compared to control groups”.
On to `CCCCCCC(C)(C)c1cc(OC(C)=O)c([C@H]2C=C(C(=O)N(CC)CC)[C@H]3C[C@@H]2C3(C)C)c(OC(C)=O)c1` [HU-270], for which the “% inhibition of NMDA” value in the assay on Rat brain NMDA receptors (1 μM) amounted to 20%. For the same molecule, the “histopathological damage / survival” value in assay [1] was “increased survival of hippocampal cells”.
For the molecule `CCCCCCC(C)(C)c1cc(OC(C)=O)c([C@H]2C=C(C(=O)NCCO)[C@H]3C[C@@H]2C3(C)C)c(OC(C)=O)c1` [HU-271], the “% inhibition of NMDA” value with Rat brain NMDA receptors (1 μM) came out at 16%; in the assay with Rat brain NMDA receptors (10 μM), 20%. The “histopathological damage / survival” value in assay [1] is “increased survival of hippocampal cells”.
